Laboratory results reported in US9907800B2, “Kinase inhibitors and method of treating cancer” (University Health Network, priority 2010, dated 2018).
Structures can show the parent of a compound that is named as a salt. Where two headings read alike, the source gives them in different places.

What was measured:
human PLK4 = human PLK4 (Homo sapiens (Human), UniProt O00444); test: PLK4 inhibition assay (indirect ELISA); format: biochemical
Experimental: PLK4 activity was measured using an indirect ELISA detection system. […] The colourimetric reaction was allowed to continue for 5 minutes, followed by addition of stop solution (0.5 N sulphuric acid), and quantified by detection at 450 nm with either a monochromatic or filter based plate reader (Molecular Devices M5 or Beckman DTX880, respectively).
Compounds were pre-incubated in the presence of enzyme for 15 minutes prior to addition of ATP and the activity remaining quantified using the above described activity assay. […] The IC50 value was determined using a non-linear 4 point logistic curve fit (XLfit4, IDBS) with the formula; (A+(B/(1+((x/C)^D)))), where A=background value, B=range, C=inflection point, D=curve fit parameter.

Aurora B = Aurora B (Homo sapiens (Human), UniProt Q96GD4); test: Aurora B inhibition assay (Z-Lyte); format: biochemical; conditions: read-out: Aurora B IC50 Ranges
Aurora B, sequence (Q96GD4 whole entry): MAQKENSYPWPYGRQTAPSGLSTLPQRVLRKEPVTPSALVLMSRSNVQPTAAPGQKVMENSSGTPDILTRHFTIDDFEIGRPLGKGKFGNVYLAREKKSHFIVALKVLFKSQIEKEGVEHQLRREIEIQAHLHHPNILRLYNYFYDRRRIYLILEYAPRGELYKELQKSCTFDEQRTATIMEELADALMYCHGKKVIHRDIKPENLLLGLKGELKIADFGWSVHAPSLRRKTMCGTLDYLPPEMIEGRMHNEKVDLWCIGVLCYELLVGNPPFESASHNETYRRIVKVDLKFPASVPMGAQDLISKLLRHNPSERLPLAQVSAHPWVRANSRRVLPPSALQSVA
Experimental: Aurora B inhibition was determined using the Z-Lyte assay kit from Invitrogen. […] The % inhibition values were determined according to the manufacturer's directions and IC50 values were obtained using a non-linear 4 point logistic curve fit (XLfit4, IDBS)

human PLK4, sequence (O00444 1-391): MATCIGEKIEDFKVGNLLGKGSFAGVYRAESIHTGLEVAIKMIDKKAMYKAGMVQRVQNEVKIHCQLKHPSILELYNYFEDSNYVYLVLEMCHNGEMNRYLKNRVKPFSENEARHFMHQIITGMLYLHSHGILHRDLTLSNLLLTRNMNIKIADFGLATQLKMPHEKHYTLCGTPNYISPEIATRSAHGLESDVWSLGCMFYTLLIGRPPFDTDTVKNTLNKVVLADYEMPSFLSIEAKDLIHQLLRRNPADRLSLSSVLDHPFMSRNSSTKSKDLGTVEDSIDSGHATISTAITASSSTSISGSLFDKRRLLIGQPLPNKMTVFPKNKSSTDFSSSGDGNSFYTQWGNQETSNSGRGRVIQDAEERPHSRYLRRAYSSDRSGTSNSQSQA

Compound: O=C1Nc2ccccc2[C@]12C[C@H]2c1ccc2[nH]ncc2c1 (relative stereo) [Example A1, (1R*,2S*)-2-(1H-indazol-5-yl)spiro[cyclopropane-1,3′-indolin]-2′-one]
- IC50 (human PLK4; read-out: PLK4 IC50 Ranges): > 1000 nM

Compound: O=C1Nc2ccccc2[C@]12C[C@H]2c1ccc2c(I)n[nH]c2c1 (relative stereo) [Example A9, (1R*,2S*)-2-(3-iodo-1H-indazol-6-yl)spiro[cyclopropane-1,3′-indolin]-2′-one]
- IC50 (Aurora B): 100 to 1000 nM

Compound: O=C1Nc2ncc(Br)cc2[C@]12C[C@H]2c1ccc2c(/C=C/c3cccnc3)n[nH]c2c1 (relative stereo) [Example A27, (1R*,2S*)-5′-bromo-2-(3-((E)-2-(pyridin-3-yl)vinyl-1H-indazol-6-yl)spiro[cyclopropane-1,3′-pyrrolo[2,3-b]pyridin]-2′(1′H)-one]
- IC50 (human PLK4; read-out: PLK4 IC50 Ranges): < 100 nM
- IC50 (Aurora B): < 100 nM

Compound: COc1ccc2c(c1)[C@]1(C[C@H]1c1ccc3c(-c4ccnc(N5CCN(C)CC5)c4)n[nH]c3c1)C(=O)N2 (relative stereo) [Example A37, (1R*,2S*)-5′-Methoxy-2-(3-(2-(4-methylpiperazin-1-yl)pyridin-4-yl)-1H-indazol-6-yl)spiro[cyclopropane-1,3′-indolin]-2′-one]
- IC50 (human PLK4; read-out: PLK4 IC50 Ranges): < 100 nM
- IC50 (Aurora B): < 100 nM

Compound: COc1ccc2c(c1)[C@]1(C[C@H]1c1ccc3c(-c4cccc(CO)c4)n[nH]c3c1)C(=O)N2 (relative stereo) [Example A43, (1R*,2S*)-2-(3-(3-(hydroxymethyl)phenyl)-1H-indazol-6-yl)-5′-methoxy spiro[cyclopropane-1,3′-indolin]-2′-one 2,2,2-trifluoroacetate]
- IC50 (human PLK4; read-out: PLK4 IC50 Ranges): < 100 nM
- IC50 (Aurora B): < 100 nM

Compound: COc1ccc2c(c1)[C@]1(C[C@H]1c1ccc3c(-c4cccc(CCO)c4)n[nH]c3c1)C(=O)N2 (relative stereo) [Example A46, (1R*,2S*)-2-(3-(3-(2-hydroxyethyl)phenyl)-1H-indazol-6-yl)-5′-methoxy spiro[cyclopropane-1,3′-indolin]-2′-one]
- IC50 (human PLK4; read-out: PLK4 IC50 Ranges): < 100 nM

Compound: COc1ccc2c(c1)[C@]1(C[C@H]1c1ccc3c(-c4ccc(N5CCNCC5)cc4)n[nH]c3c1)C(=O)N2 (relative stereo) [Example A48, (1R*,2S*)-5′-methoxy-2-(3-(4-(piperazin-1-yl)phenyl)-1H-indazol-6-yl)spiro[cyclopropane-1,3′-indolin]-2′-one 2,2,2-trifluoroacetate]
- IC50 (human PLK4): < 100 nM
- IC50 (Aurora B): < 100 nM

Compound: COc1ccc2c(c1)[C@]1(C[C@H]1c1ccc3c(C#Cc4cccnc4)n[nH]c3c1)C(=O)N2 (relative stereo) [Example A52, (1R*,2S*)- and (1R*,2S*)-5′-methoxy-2-(3-(pyridin-3-ethynyl)-1H-indazol-6-yl)spiro[cyclopropane-1,3′-indolin]-2′-one]
- IC50 (human PLK4; read-out: PLK4 IC50 Ranges): < 100 nM
- IC50 (Aurora B): < 100 nM

Compound: CN1C(=O)[C@@]2(C[C@H]2c2ccc3c(-c4ccc(N5CCNCC5)cc4)n[nH]c3c2)c2ccccc21 (relative stereo) [Example A88, (1R*,2S*)-1′-methyl-2-(3-(4-(piperazin-1-yl)phenyl)-1H-indazol-6-yl)spiro[cyclopropane-1,3′-indolin]-2′-one 2,2,2-trifluoroacetate]
- IC50 (human PLK4; read-out: PLK4 IC50 Ranges): 100 to 1000 nM

Compound: COc1cc2c(cc1OC)[C@]1(C[C@H]1c1ccc3c(-c4cccc(CN5CCOCC5)c4)n[nH]c3c1)C(=O)N2 (relative stereo) [Example A143, (1R*,2S*)-5′,6′-dimethoxy-2-(3-(3-(morpholinomethyl)phenyl)-1H-indazol-6-yl)spiro[cyclopropane-1,3′-indolin]-2′-one 2,2,2-trifluoroacetate]
- IC50 (human PLK4; read-out: PLK4 IC50 Ranges): > 1000 nM

Compound: COc1cc2c(cc1OC)[C@]1(C[C@H]1c1ccc3c(-c4ccc(N5CCN(C)CC5)cc4)n[nH]c3c1)C(=O)N2 (relative stereo) [Example A144, (1R*,2S*)-5′,6′-dimethoxy-2-(3-(4-(4-methylpiperazin-1-yl)phenyl)-1H-indazol-6-yl)spiro[cyclopropane-1,3′-indolin]-2′-one 2,2,2-trifluoroacetate]
- IC50 (human PLK4; read-out: PLK4 IC50 Ranges): 100 to 1000 nM

Compound: COc1ccc2c(c1)[C@@]1(C[C@@H]1c1ccc3c(I)n[nH]c3c1)C(=O)N2 [Example A8, (1S,2R)-2-(3-iodo-1H-indazol-6-yl)-5′-methoxyspiro[cyclopropane-1,3′-indolin]-2′-one]
- IC50 (human PLK4; read-out: PLK4 IC50 Ranges): > 1000 nM

Compound: O=C1Nc2ccccc2[C@]12C[C@H]2c1ccc2c(I)n[nH]c2c1 [Example A10, (1R,2S)-2-(3-iodo-1H-indazol-6-yl)spiro[cyclopropane-1,3′-indolin]-2′-one]
- IC50 (Aurora B): 100 to 1000 nM

Compound: O=C1Nc2ccccc2[C@]12C[C@H]2c1ccc2c(/C=C/c3csc(CN4CCOCC4)n3)n[nH]c2c1 [Example A77, (1R,2S)-2-(3-((E)-2-(2-(morpholinomethyl)thiazol-4-yl)vinyl)-1H-indazol-6-yl)spiro[cyclopropane-1,3′-indolin]-2′-one 2,2,2-trifluoroacetate salt]
- IC50 (human PLK4; read-out: PLK4 IC50 Ranges): < 100 nM

Compound: COc1ccc2c(c1)[C@]1(C[C@H]1c1ccc3c(/C=C/c4ccc(CN5CCOCC5)cc4)n[nH]c3c1)C(=O)N2C [Example A102, (1R,2S)-(E)-5′-methoxy-1′-methyl-2-(3-(4-(morpholinomethyl)styryl)-1H-indazol-6-yl)spiro[cyclopropane-1,3′-indolin]-2′-one hydrochloride]
- IC50 (Aurora B): < 100 nM

Compound: O=C1Nc2ccccc2[C@]12C[C@H]2c1ccc2c(/C=C/c3ccc4c(c3)CNCCO4)n[nH]c2c1 [Example A113, (1R,2S)-2-(3-((E)-2-(2,3,4,5-tetrahydrobenzo[f][1,4]oxazepin-7-yl)vinyl)-1H-indazol-6-yl)spiro[cyclopropane-1,3′-indolin]-2′-one 2,2,2-trifluoroacetate]
- IC50 (human PLK4; read-out: PLK4 IC50 Ranges): < 100 nM

Compound: C/C(=C\c1ccc(CN2CCOCC2)cc1)c1n[nH]c2cc([C@@H]3C[C@@]34C(=O)Nc3ccccc34)ccc12 [Example A114, (1R,2S)-2-(3-((E)-1-(4-(morpholinomethyl)phenyl)prop-1-en-2-yl)-1H-indazol-6-yl)spiro[cyclopropane-1,3′-indolin]-2′-one 2,2,2-trifluoroacetate]
- IC50 (human PLK4; read-out: PLK4 IC50 Ranges): < 100 nM

Compound: CN1C(=O)[C@@]2(C[C@H]2c2ccc3c(/C=C/c4ccc(CN5CCCC5)cc4)n[nH]c3c2)c2ccccc21 [Example A115, (1R,2S)-(E)-1′-methyl-2-(3-(4-(pyrrolidin-1-ylmethyl)styryl)-1H-indazol-6-yl)spiro[cyclopropane-1,3′-indolin]-2′-one 2,2,2-trifluoroacetate]
- IC50 (human PLK4; read-out: PLK4 IC50 Ranges): < 100 nM

Compound: COc1ccc2c(c1)[C@]1(C[C@H]1c1ccc3c(-c4ccc(C5(F)CCN(C)CC5)cc4)n[nH]c3c1)C(=O)N2 [Example A124, (1R,2S)-2-(3-(4-(4-fluoro-1-methylpiperidin-4-yl)phenyl)-1H-indazol-6-yl)-5′-methoxyspiro[cyclopropane-1,3′-indolin]-2′-one 2,2,2-trifluoroacetate]
- IC50 (human PLK4; read-out: PLK4 IC50 Ranges): < 100 nM

Compound: COc1ccc2c(c1)[C@]1(C[C@H]1c1ccc3c(-c4csc(CN5CCOCC5)c4)n[nH]c3c1)C(=O)N2 [Example A125, (1R,2S)-5′-methoxy-2-(3-(5-(morpholinomethyl)thiophen-3-yl)-1H-indazol-6-yl)spiro[cyclopropane-1,3′-indolin]-2′-one 2,2,2-trifluoroacetate]
- IC50 (human PLK4; read-out: PLK4 IC50 Ranges): < 100 nM

Compound: COc1ccc2c(c1)[C@]1(C[C@H]1c1ccc3c(/C=C/c4ccc(CCN5CCOCC5)cc4)n[nH]c3c1)C(=O)N2 [Example A177, (1R,2S)-(E)-5′-methoxy-2-(3-(4-(2-morpholinoethyl)styryl)-1H-indazol-6-yl)spiro[cyclopropane-1,3′-indolin]-2′-one 2,2,2-trifluoroacetate]
- IC50 (Aurora B): < 100 nM
